The values below are quoted from earlier work in US20180243247A1, “DRUG COMBINATIONS FOR CEREBROVASCULAR DISEASE” (priority 2017, published 2018).

Read-outs that look alike come from different tables or passages of the source.

Series [1] has as its system AMPA receptor.
In series [2] the test system is rodent models of CNS ischemia.

In the case of `NCCCNCCCCNCCC(=O)NCCCCCNC(=O)[C@H](CC(N)=O)NC(=O)Cc1ccc(O)cc1O` [JSTX-3], the “calcium influx through the AMPA receptor” value in series [1] was “dramatically reduces calcium influx”.
Regarding `C=CC[C@@H]1/C=C(\C)C[C@H](C)C[C@H](OC)[C@H]2O[C@@](O)(C(=O)C(=O)N3CCCC[C@H]3C(=O)O[C@H](/C(C)=C/[C@@H]3CC[C@@H](O)[C@H](OC)C3)[C@H](C)[C@@H](O)CC1=O)[C@H](C)C[C@@H]2OC` [Tacrolimus], the neuroprotection entry in series [2] (dose concentration of 0.1 mg/kg) is reported as “neuroprotective”; in series [2] (lower doses than 0.1 mg/kg, monotherapy) it was “not neuroprotective”. For the same compound, the neuroprotective effects entry in series [2] (rodent models of CNS ischemia) was “exhibits neuroprotective effects”.
